{
  "source": "ChEMBL document CHEMBL1142966",
  "about": "“Enhanced antileukemic activity of the novel complex 2,5-dihydroxybenzoate molybdenum(VI) against 2,5-dihydroxybenzoate, polyoxometalate of Mo(VI), and tetraphenylphosphonium in the human HL-60 and K562 leukemic cell lines” (J Med Chem, 2007)",
  "format_in_all_cases": "cell-based",
  "key": {"K562 [1]": {"test_system": "K562", "test": "Cytotoxicity against human K562 cells at 1000 ug/mL by trypan blue assay after 72 hrs", "settings": "k562, 72 h"}, "HL-60 [2]": {"test_system": "HL-60", "test": "Cytotoxicity against human HL60 cells at 10000 ug/mL by trypan blue assay after 72 hrs", "settings": "hl-60, 72 h"}, "K562 [3]": {"test_system": "K562", "test": "Cytotoxicity against human K562 cells at 10 ug/mL by trypan blue assay after 72 hrs", "settings": "k562, 72 h"}, "HL-60 [4]": {"test_system": "HL-60", "test": "Cytotoxicity against human HL60 cells at 10 ug/mL by trypan blue assay after 72 hrs", "settings": "hl-60, 72 h"}, "K562 [5]": {"test_system": "K562", "test": "Cytotoxicity against human K562 cells at 10 ug/mL by trypan blue assay after 48 hrs", "settings": "k562, 48 h"}, "K562 [6]": {"test_system": "K562", "test": "Cytotoxicity against human K562 cells at 10000 ug/mL by trypan blue assay after 24 hrs", "settings": "k562, 24 h"}, "HL-60 [7]": {"test_system": "HL-60", "test": "Cytotoxicity against human HL60 cells at 10000 ug/mL by trypan blue assay after 48 hrs", "settings": "hl-60, 48 h"}, "HL-60 [8]": {"test_system": "HL-60", "test": "Cytotoxicity against human HL60 cells at 10000 ug/mL by trypan blue assay after 24 hrs", "settings": "hl-60, 24 h"}, "HL-60 [9]": {"test_system": "HL-60", "test": "Cytotoxicity against human HL60 cells at 10 ug/mL by trypan blue assay after 48 hrs", "settings": "hl-60, 48 h"}, "HL-60 [10]": {"test_system": "HL-60", "test": "Cytotoxicity against human HL60 cells at 10 ug/mL by trypan blue assay after 24 hrs", "settings": "hl-60, 24 h"}, "HL-60 [11]": {"test_system": "HL-60", "test": "Cytotoxicity against human HL60 cells at 100 ug/mL by trypan blue assay after 48 hrs", "settings": "hl-60, 48 h"}, "HL-60 [12]": {"test_system": "HL-60", "test": "Cytotoxicity against human HL60 cells at 1000 ug/mL by trypan blue assay after 24 hrs", "settings": "hl-60, 24 h"}, "HL-60 [13]": {"test_system": "HL-60", "test": "Cytotoxicity against human HL60 cells at 100 ug/mL by trypan blue assay after 72 hrs", "settings": "hl-60, 72 h"}, "K562 [14]": {"test_system": "K562", "test": "Cytotoxicity against human K562 cells at 10000 ug/mL by trypan blue assay after 48 hrs", "settings": "k562, 48 h"}, "K562 [15]": {"test_system": "K562", "test": "Cytotoxicity against human K562 cells at 100 ug/mL by trypan blue assay after 24 hrs", "settings": "k562, 24 h"}, "K562 [16]": {"test_system": "K562", "test": "Cytotoxicity against human K562 cells at 100 ug/mL by trypan blue assay after 72 hrs", "settings": "k562, 72 h"}, "K562 [17]": {"test_system": "K562", "test": "Cytotoxicity against human K562 cells at 1000 ug/mL by trypan blue assay after 48 hrs", "settings": "k562, 48 h"}, "K562 [18]": {"test_system": "K562", "test": "Cytotoxicity against human K562 cells at 1000 ug/mL by trypan blue assay after 24 hrs", "settings": "k562, 24 h"}, "HL-60 [19]": {"test_system": "HL-60", "test": "Cytotoxicity against human HL60 cells at 1000 ug/mL by trypan blue assay after 72 hrs", "settings": "hl-60, 72 h"}, "K562 [20]": {"test_system": "K562", "test": "Cytotoxicity against human K562 cells at 10000 ug/mL by trypan blue assay after 72 hrs", "settings": "k562, 72 h"}, "HL-60 [21]": {"test_system": "HL-60", "test": "Cytotoxicity against human HL60 cells at 1000 ug/mL by trypan blue assay after 48 hrs", "settings": "hl-60, 48 h"}, "K562 [22]": {"test_system": "K562", "test": "Cytotoxicity against human K562 cells at 10 ug/mL by trypan blue assay after 24 hrs", "settings": "k562, 24 h"}, "K562 [23]": {"test_system": "K562", "test": "Cytotoxicity against human K562 cells at 100 ug/mL by trypan blue assay after 48 hrs", "settings": "k562, 48 h"}, "HL-60 [24]": {"test_system": "HL-60", "test": "Cytotoxicity against human HL60 cells at 100 ug/mL by trypan blue assay after 24 hrs", "settings": "hl-60, 24 h"}},
  "data": [
    {"smiles": "[Cl-].c1ccc([P+](c2ccccc2)(c2ccccc2)c2ccccc2)cc1", "note": "[TETRAPHENYLPHOSPHONIUM CHLORIDE]", "values": [
      {"measurement": "Activity", "setting": "K562 [1]", "value": 100, "unit": "%"},
      {"measurement": "Activity", "setting": "HL-60 [2]", "value": 100, "unit": "%"},
      {"measurement": "Activity", "setting": "K562 [3]", "value": 100, "unit": "%"},
      {"measurement": "Activity", "setting": "HL-60 [4]", "value": 100, "unit": "%"},
      {"measurement": "Activity", "setting": "K562 [5]", "value": 100, "unit": "%"},
      {"measurement": "Activity", "setting": "K562 [6]", "value": 100, "unit": "%"},
      {"measurement": "Activity", "setting": "HL-60 [7]", "value": 100, "unit": "%"},
      {"measurement": "Activity", "setting": "HL-60 [8]", "value": 100, "unit": "%"},
      {"measurement": "Activity", "setting": "HL-60 [9]", "value": 100, "unit": "%"},
      {"measurement": "Activity", "setting": "HL-60 [10]", "value": 1, "unit": "%"},
      {"measurement": "Activity", "setting": "HL-60 [11]", "value": 100, "unit": "%"},
      {"measurement": "Activity", "setting": "HL-60 [12]", "value": 100, "unit": "%"},
      {"measurement": "Activity", "setting": "HL-60 [13]", "value": 100, "unit": "%"},
      {"measurement": "Activity", "setting": "K562 [14]", "value": 100, "unit": "%"},
      {"measurement": "Activity", "setting": "K562 [15]", "value": 41.8, "unit": "%"},
      {"measurement": "Activity", "setting": "K562 [16]", "value": 100, "unit": "%"},
      {"measurement": "Activity", "setting": "K562 [17]", "value": 100, "unit": "%"},
      {"measurement": "Activity", "setting": "K562 [18]", "value": 100, "unit": "%"},
      {"measurement": "Activity", "setting": "HL-60 [19]", "value": 100, "unit": "%"},
      {"measurement": "Activity", "setting": "K562 [20]", "value": 100, "unit": "%"},
      {"measurement": "Activity", "setting": "HL-60 [21]", "value": 100, "unit": "%"},
      {"measurement": "Activity", "setting": "K562 [22]", "value": 56.8, "unit": "%"},
      {"measurement": "Activity", "setting": "K562 [23]", "value": 100, "unit": "%"},
      {"measurement": "Activity", "setting": "HL-60 [24]", "value": 4.5, "unit": "%"}
    ]}
  ]
}
